One compound from article PMC9094630, “Epidemiological Impact of GII.17 Human Noroviruses Associated With Attachment to Enterocytes” (Frontiers in Microbiology, 2022) can be followed below.

The experiment deals with T1, GII.17 Kawasaki 308 variant VLP (E12905) (Norovirus GII.17, UniProt A0A0S2ZZA3).
T1 construct: gene VP1
The settings on record: ligand as BSA conjugate (about 20 per BSA, multivalent), immobilized; VLP 2 ng/ul; HBS pH 7.4, 25 C; also ELISA (Figure 4A). Background: ELISA stands for enzyme-linked immunosorbent assay.

The structures appear in SMILES notation.

Take `CC(=O)N[C@H]1[C@H](O[C@H]2[C@@H](O)[C@@H](CO)O[C@@H](O[C@H]3[C@H](O)[C@@H](O)C(O)O[C@@H]3CO)[C@@H]2O)O[C@H](CO)[C@@H](O)[C@@H]1O[C@@H]1O[C@H](CO)[C@H](O)[C@H](O)[C@H]1O[C@@H]1O[C@@H](C)[C@@H](O)[C@@H](O)[C@@H]1O` (stereo partly shown) [lacto-N-fucopentaose I]: the “GII.17 variant / Kawasaki 308” value is 255 RU.
